From patent US20060004070A1, “Fungicidal active substance combinations” (priority 2002, published 2006)

Columns and labels:
[1] = tested on: Leptosphaeria nodorum; assay: Leptosphaeria nodorum test (wheat)/protective; type: in vivo; conditions: protective spray, application rate 100 g/ha, evaluation 10 days after inoculation
Method: Leptosphaeria nodorum test (wheat)/protective Solvent: 25 parts by weight of N,N-dimethylacetamide Emulsifier: 0.6 part by weight of alkylaryl polyglycol ether To produce a suitable preparation of active compound, 1 part by weight of active compound combination is mixed with the stated amounts of solvent and emulsifier, and the concentrate is diluted with water to the desired concentration. To test for protective activity, young plants are sprayed with the preparation of active compound at the stated application rate. After the spray coating has dried on, the plants are sprayed with a spore suspension of Leptosphaeria nodorum. The plants remain in an incubation cabin at 20° C. and 100% relative atmospheric humidity for 48 hours. The plants are placed in a greenhouse at a temperature of about 15° C. and a relative atmospheric humidity of 80%. Evaluation is carried out 10 days after the inoculation. 0% means an efficacy which corresponds to that of the control, whereas an efficacy of 100% means that no infection is observed.

[2] = tested on: Puccinia recondita; assay: Puccinia test (wheat)/curative; type: in vivo; conditions: curative spray 48 hours after inoculation, application rate 25 g/ha, evaluation 10 days after inoculation
Method: Puccinia test (wheat)/curative
Solvent: 25 parts by weight of N,N-dimethylacetamide
Emulsifier: 0.6 part by weight of alkylaryi polyglycol ether
To produce a suitable preparation of active compound, 1 part by weight of active compound combination is mixed with the stated amounts of solvent and emulsifier, and the concentrate is diluted with water to the desired concentration.
To test for curative activity, young plants are inoculated with a spore suspension of Puccinia recondita in a 0.1% strength aqueous agar solution. 48 hours after the inoculation, the plants are sprayed with the preparation of active compound at the stated application rate.
The plants are placed in a greenhouse at a temperature of about 20° C. and a relative atmospheric humidity of about 80% to promote the development of rust pustules.
Evaluation is carried out 10 days after the inoculation. 0% means an efficacy which corresponds to that of the control, whereas an efficacy of 100% means that no infection is observed.

Row | SMILES | Efficacy in % [1] [%] | Efficacy in % [2] [%]
1 | OC(Cc1ccccc1Cl)(Cn1nc[nH]c1=S)C1(Cl)CC1 (stereo not shown) [Ex. (II)] | 56 | 43
2 | CO/N=C(/C(=O)OC)c1ccccc1CO/N=C(\C)c1cccc(C(F)(F)F)c1 [Ex. (I), 2-[α-{[(α-methyl-3-trifluoromethylbenzyl)imino]oxy}-o-tolyl]glyoxylic acid methyl ester O-methyl oxime] | 67 | 0
